Reference: publication PMC10579715 (Plant Biotechnology Journal, 2023)

Tested on: LmUGT73P1
Assay: LC-QTOF-MS/MS rhamnosyltransferase assay, Michaelis-Menten plot
Type: biochemical, Lonicera macranthoides
Details: 10 mM UDP-Rha, 50 mM Tris-HCl pH 7.5, 37 °C, 20 min

CC1(C)CC[C@]2(C(=O)O)CC[C@]3(C)C(=CC[C@@H]4[C@@]5(C)CC[C@H](O[C@@H]6OC[C@H](O)[C@H](O)[C@H]6O)[C@@](C)(CO)[C@@H]5CC[C@]43C)[C@@H]2C1 [cauloside A]
Km: 33 µM
